Reference: ChEMBL document CHEMBL1201862, “PubChem BioAssay data set” (2004)
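Where inhibition never reached the appropriate level, the endpoint shown equals the highest concentration tested. Otherwise, values were interpolated linearly from a five-concentration, 48-hour dose response in 96-well plates. GI50: concentration for 50% inhibition of growth.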 Calls of active or inactive are those of the source. No stated cut-off is given here; in the data, active = GI50 up to about 1.1 µM and inactive = higher.

Columns and labels:
Test in all cases: NCI-60 cell line screen, 48 h
A549 = system: A549
SK-OV-3 = system: SK-OV-3
MDA-MB-435 = system: MDA-MB-435
HCC 2998 = system: HCC 2998
IGROV-1 = system: IGROV-1
M14 = system: M14
CAKI-1 = system: CAKI-1
U-251 = system: U-251
UO-31 = system: UO-31
SK-MEL-28 = system: SK-MEL-28
Hs-578T = system: Hs-578T
SW-620 = system: SW-620
PC-3 = system: PC-3
Malme-3M = system: Malme-3M
NCI-H522 = system: NCI-H522
A498 = system: A498
HOP-62 = system: HOP-62
TK-10 = system: TK-10
MOLT-4 = system: MOLT-4
MCF7 = system: MCF7
ACHN = system: ACHN
SK-MEL-5 = system: SK-MEL-5
786-0 = system: 786-0
RPMI-8226 = system: RPMI-8226
HCT-15 = system: HCT-15
OVCAR-8 = system: OVCAR-8
SK-MEL-2 = system: SK-MEL-2
SNB-19 = system: SNB-19
NCI-H23 = system: NCI-H23
SNB-75 = system: SNB-75
NCI-H460 = system: NCI-H460
OVCAR-4 = system: OVCAR-4
KM12 = system: KM12
COLO 205 = system: COLO 205
SF-539 = system: SF-539
EKVX = system: EKVX
T47D = system: T47D
SF-268 = system: SF-268
HL-60 = system: HL-60
OVCAR-3 = system: OVCAR-3
NCI-H226 = system: NCI-H226
UACC-257 = system: UACC-257
RXF 393 = system: RXF 393
BT-549 = system: BT-549
HCT-116 = system: HCT-116
DU-145 = system: DU-145
HOP-92 = system: HOP-92
MDA-N = system: MDA-N
CCRF-CEM = system: CCRF-CEM
LOX IMVI = system: LOX IMVI
SF-295 = system: SF-295
SN12C = system: SN12C
SR = system: SR
NCI/ADR-RES = system: NCI/ADR-RES
K562 = system: K562
OVCAR-5 = system: OVCAR-5
UACC-62 = system: UACC-62
HT-29 = system: HT-29
MDA-MB-231 = system: MDA-MB-231

Compound: N=C(N)N/N=C/c1c(Cl)nc2n1CCS2
- GI50 (A549): 62.5 µM (inactive)
- GI50 (SK-OV-3): 57.3 µM (inactive)
- GI50 (MDA-MB-435): 59.4 µM (inactive)
- GI50 (HCC 2998): 45.3 µM (inactive)
- GI50 (IGROV-1): > 100 µM (inactive)
- GI50 (M14): 56.4 µM (inactive)
- GI50 (CAKI-1): > 100 µM (inactive)
- GI50 (U-251): 82.4 µM (inactive)
- GI50 (UO-31): > 100 µM (inactive)
- GI50 (SK-MEL-28): > 100 µM (inactive)
- GI50 (Hs-578T): 64.1 µM (inactive)
- GI50 (SW-620): 73.8 µM (inactive)
- GI50 (PC-3): 66.5 µM (inactive)
- GI50 (Malme-3M): > 100 µM (inactive)
- GI50 (NCI-H522): 42.4 µM (inactive)
- GI50 (A498): 90.8 µM (inactive)
- GI50 (HOP-62): 38.1 µM (inactive)
- GI50 (TK-10): > 100 µM (inactive)
- GI50 (MOLT-4): 46.8 µM (inactive)
- GI50 (MCF7): 46.1 µM (inactive)
- GI50 (ACHN): 54.7 µM (inactive)
- GI50 (SK-MEL-5): > 10 µM (inactive)
- GI50 (786-0): 49.4 µM (inactive)
- GI50 (RPMI-8226): > 100 µM (inactive)
- GI50 (HCT-15): > 100 µM
- GI50 (OVCAR-8): > 100 µM (inactive)
- GI50 (SK-MEL-2): > 100 µM (inactive)
- GI50 (SNB-19): > 100 µM (inactive)
- GI50 (NCI-H23): 96.2 µM (inactive)
- GI50 (SNB-75): > 100 µM (inactive)
- GI50 (NCI-H460): 48.4 µM (inactive)
- GI50 (OVCAR-4): > 100 µM (inactive)
- GI50 (KM12): 34.8 µM (inactive)
- GI50 (COLO 205): 34.7 µM (inactive)
- GI50 (SF-539): 47.5 µM (inactive)
- GI50 (EKVX): > 100 µM (inactive)
- GI50 (T47D): > 100 µM (inactive)
- GI50 (SF-268): 50.8 µM (inactive)
- GI50 (HL-60): > 100 µM (inactive)
- GI50 (OVCAR-3): 44.4 µM (inactive)
- GI50 (NCI-H226): > 100 µM (inactive)
- GI50 (UACC-257): > 100 µM (inactive)
- GI50 (RXF 393): 22.5 µM (inactive)
- GI50 (BT-549): > 100 µM (inactive)
- GI50 (HCT-116): 16.6 µM (inactive)
- GI50 (DU-145): 90.2 µM (inactive)
- GI50 (HOP-92): 70.3 µM (inactive)
- GI50 (MDA-N): 29 µM (inactive)
- GI50 (CCRF-CEM): 71.9 µM (inactive)
- GI50 (LOX IMVI): > 100 µM (inactive)
- GI50 (SF-295): 99.1 µM (inactive)
- GI50 (SN12C): 62.5 µM (inactive)
- GI50 (SR): 50.5 µM (inactive)
- GI50 (NCI/ADR-RES): > 100 µM (inactive)
- GI50 (K562): 53.2 µM (inactive)
- GI50 (OVCAR-5): 76.9 µM (inactive)
- GI50 (UACC-62): > 100 µM (inactive)
- GI50 (HT-29): 38 µM (inactive)

Compound: N#Cc1c(O)c(/C=N/c2ncccn2)c(=O)n2c1[nH]c1ccccc12
- GI50 (A549): > 100 µM (inactive)
- GI50 (SK-OV-3): > 100 µM (inactive)
- GI50 (MDA-MB-435): > 100 µM (inactive)
- GI50 (HCC 2998): > 100 µM (inactive)
- GI50 (IGROV-1): > 100 µM (inactive)
- GI50 (M14): > 100 µM (inactive)
- GI50 (CAKI-1): > 100 µM (inactive)
- GI50 (U-251): > 100 µM (inactive)
- GI50 (UO-31): > 100 µM (inactive)
- GI50 (SK-MEL-28): > 100 µM (inactive)
- GI50 (Hs-578T): > 100 µM (inactive)
- GI50 (SW-620): > 100 µM (inactive)
- GI50 (PC-3): > 100 µM (inactive)
- GI50 (Malme-3M): > 100 µM (inactive)
- GI50 (NCI-H522): > 100 µM (inactive)
- GI50 (A498): > 100 µM (inactive)
- GI50 (TK-10): > 100 µM (inactive)
- GI50 (MOLT-4): > 100 µM (inactive)
- GI50 (MCF7): 88.9 µM (inactive)
- GI50 (SK-MEL-5): > 100 µM (inactive)
- GI50 (786-0): > 100 µM (inactive)
- GI50 (RPMI-8226): > 100 µM (inactive)
- GI50 (HCT-15): > 100 µM
- GI50 (OVCAR-8): > 100 µM (inactive)
- GI50 (SK-MEL-2): > 100 µM (inactive)
- GI50 (SNB-19): > 100 µM (inactive)
- GI50 (NCI-H23): > 100 µM (inactive)
- GI50 (SNB-75): 44.1 µM (inactive)
- GI50 (NCI-H460): > 100 µM (inactive)
- GI50 (MDA-MB-231): > 100 µM (inactive)
- GI50 (OVCAR-4): > 100 µM (inactive)
- GI50 (KM12): > 100 µM (inactive)
- GI50 (COLO 205): > 100 µM (inactive)
- GI50 (SF-539): > 100 µM (inactive)
- GI50 (EKVX): > 100 µM (inactive)
- GI50 (T47D): > 100 µM (inactive)
- GI50 (SF-268): > 100 µM (inactive)
- GI50 (HL-60): > 100 µM (inactive)
- GI50 (OVCAR-3): > 100 µM (inactive)
- GI50 (NCI-H226): > 100 µM (inactive)
- GI50 (UACC-257): > 100 µM (inactive)
- GI50 (RXF 393): > 100 µM (inactive)
- GI50 (BT-549): > 100 µM (inactive)
- GI50 (HCT-116): > 100 µM (inactive)
- GI50 (HOP-92): > 100 µM (inactive)
- GI50 (MDA-N): > 100 µM (inactive)
- GI50 (CCRF-CEM): > 100 µM (inactive)
- GI50 (LOX IMVI): > 100 µM (inactive)
- GI50 (SF-295): > 100 µM (inactive)
- GI50 (SN12C): > 100 µM (inactive)
- GI50 (SR): > 100 µM (inactive)
- GI50 (NCI/ADR-RES): > 100 µM (inactive)
- GI50 (K562): > 100 µM (inactive)
- GI50 (OVCAR-5): > 100 µM (inactive)
- GI50 (HT-29): > 100 µM (inactive)
